Measured values: patent publication US20050256034A1, “Dioxolane analogs for improved inter-cellular delivery” (priority 2000, published 2005)
Where a name gives a salt, the structure may show the parent alone.

Test: 3H-Thymidine Incorporation Assay (24 hr drug, wash, another 48 hr; 72 hr assay)
Format: cell-based
Conditions: CCRF-CEM, read-out: IC50 in μM (3H-TdR incorporation at 72 hr) CEM/dCK- 24 h, CEM/dCK- (CCRF-CEM deoxycytidine kinase-deficient); 24 h exposure to drug, wash, another 48 hr

Row | Compound | IC50 [µM]
1 | N=C(OC[C@H]1OC[C@@H](n2ccc(N)nc2=O)O1)C(Cl)(Cl)Cl [Compound 79, 2,2,2-TRICHLORO-ACETI- MIDIC ACID 4-(4-A- MINO-2-OXO-2H-PYRI- MIDIN-1-YL)-[1,3]DI- OXOLAN-2-YL- METHYL ESTER] | 63
2 | Nc1ccn([C@@H]2CO[C@H](COC(=O)CCCCCNCc3ccccc3)O2)c(=O)n1 [Compound 84, 6-Benzylamino-hexanoic acid 4-(4-amino-2-oxo-2H-pyri-midin-1-yl)-[1,3]di-oxolan-2-ylmethyl ester] | 60

Same assay, conditions: MCF7, read-out: IC50 in μM (3H-TdR incorporation at 72 hr) MCF-7 24 h, MCF-7 human breast carcinoma; 24 h exposure to drug, wash, another 48 hr

Row | Compound | IC50 [µM]
3 | Nc1ccn([C@@H]2CO[C@H](COCOCc3ccccc3)O2)c(=O)n1 [Compound 56, 4-AMINO-1-(2-BENZYLOXY- METHOXYMETHYL-[1,3]DI- OXOLAN-4-YL)-1H-PYRI- MIDIN-2-ONE] | 2

Same assay, conditions: NCI-H460, read-out: IC50 in μM (3H-TdR incorporation at 72 hr) H-460 24 h, H-460 human lung carcinoma; 24 h exposure to drug, wash, another 48 hr

Row | Compound | IC50 [µM]
4 | Nc1ccn([C@@H]2CO[C@H](COCOCc3ccccc3)O2)c(=O)n1 [Compound 56, 4-AMINO-1-(2-BENZYLOXY- METHOXYMETHYL-[1,3]DI- OXOLAN-4-YL)-1H-PYRI- MIDIN-2-ONE] | 7
5 | CC(C(=O)OC[C@H]1OC[C@@H](n2ccc(N)nc2=O)O1)c1ccccc1 (stereo partly drawn) [Compound 69, (2S,4S)-2-(2″-METHYL- PHENYLACETOXY)METH- YL-4-CYTOSIN-1′-YL-1,3-DI- OXOLANE] | 0.045

Same assay, conditions: NCI-H460, read-out: IC50 in μM (3H-TdR incorporation at 72 hr) H-460 (72 h), H-460 human lung carcinoma; 72 h exposure

Row | Compound | IC50 [µM]
6 | CC(=O)OC[C@H]1OC[C@@H](n2ccc(N)nc2=O)O1 [Compound 27] | 0.0053

Same assay, conditions: ratio of IC50 CEM/dCK- to IC50 CCRF-CEM, 24 h exposure

Row | Compound | Factor (Resistance Factor = Ratio of dCK- on Wild-type CCRF-CEM)
7 | CCC(C)(C)OC(C)OC[C@H]1OC[C@@H](n2ccc(N)nc2=O)O1 (mixture of isomers) [Compound 117, 4-AMINO-1-{2-[1-(1,1-DI- METHYL-PROPOXY)-ETH- OXYMETHYL]-[1,3]DI- OXOLAN-4-YL}-1H-PYRI- MIDIN-2-ONE] | 494
8 | Nc1ccn([C@@H]2CO[C@H](COC3CCCCO3)O2)c(=O)n1 (some centres unmarked) [Compound 41, 4-AMINO-1-[2-(TETRA- HYDRO-PYRAN-2-YLOXY- METHYL)-[1,3]DI- OXOLAN-4-YL]-1H-PYRI- MIDIN-2-ONE] | 5
9 | O=C(Nc1ccn([C@@H]2CO[C@H](COC(=O)Oc3ccccc3)O2)c(=O)n1)Oc1ccccc1 [Compound 43, CARBONIC ACID 4-(2-OXO-4-PHENOXY- CARBONYLAMINO-2H-PYRI- MIDIN-1-YL)-[1,3]DI- OXOLAN-2-YLMETH- YL ESTER PHENYL ESTER] | 1,000,000
10 | O=C(Nc1ccn([C@@H]2CO[C@H](CO)O2)c(=O)n1)Oc1ccccc1 [Compound 44, [1-(2-HYDROXYMETHYL-[1,3]DI- OXOLAN-4-YL)-2-OX- O-1,2-DIHYDRO-PYRI- MIDIN-4-YL]-CARBAMIC ACID PHENYL ESTER] | 1,300
11 | CCOC(=O)Nc1ccn([C@@H]2CO[C@H](CO)O2)c(=O)n1 [Compound 45, [1-(2-HYDROXYMETHYL-[1,3]DI- OXOLAN-4-YL)-2-OX- O-1,2-DIHYDRO-PYRI- MIDIN-4-YL]-CARBAMIC ACID ETHYL ESTER] | 63
12 | CCOC(=O)Nc1ccn([C@@H]2CO[C@H](COC(=O)OCC)O2)c(=O)n1 [Compound 47, CARBONIC ACID 4-(4-ETH- OXYCARBONYLAMINO-2-OX- O-2H-PYRIMIDIN-1-YL)-[1,3]DI- OXOLAN-2-YL- METHYL ESTER ETHYL ESTER] | 34
13 | Nc1ccn([C@@H]2CO[C@H](COC(=O)Cc3ccccc3)O2)c(=O)n1 [Compound 52, (2S,4S)-2-PHENYL- ACETOXYMETHYL-4-CYTO- SIN-1′-YL-1,3-DI- OXOLANE] | 400
14 | COc1ccc(OC(=O)Nc2ccn([C@@H]3CO[C@H](COC(=O)Oc4ccc(OC)cc4)O3)c(=O)n2)cc1 [Compound 63, CARBONIC ACID 4-[4-(4-METH- OXY-PHENOXY- CARBONYLAMINO)-2-OX- O-2H-PYRIMIDIN-1-YL]-[1,3]DI- OXOLAN-2-YLMETHYL ESTER 4-METH- OXY-PHENYL ESTER] | 2,778
15 | CCCCC(C)C(=O)OC[C@H]1OC[C@@H](n2ccc(/N=C/N(C)C)nc2=O)O1 (stereo partly drawn) [Compound 64, (2S,4S)-2-(2″-METHYL-HEXANO- ICOXYMETHYL)-4-(4′-NN-DI- METHYLAMINOMETHYLENE-CYTO- SIN-1′-YL)-1,3-DI- OXOLANE] | 2,000
16 | CC(C)OC(=O)OCOC[C@H]1OC[C@@H](n2ccc(N)nc2=O)O1.O=C(O)C(F)(F)F.O=C(O)C(F)(F)F [Compound 68, CARBONIC ACID 4-(4-A- MINO-2-OXO-2H-PYRI- MIDIN-1-YL)-[1,3]DI- OXOLAN-2-YL- METHOXYMETHYL ESTER ISOPROPYL ESTER TRIFLUOROACETIC ACID SALT] | 3,333
17 | N=C(OC[C@H]1OC[C@@H](n2ccc(N)nc2=O)O1)C(Cl)(Cl)Cl [Compound 79, 2,2,2-TRICHLORO-ACETI- MIDIC ACID 4-(4-A- MINO-2-OXO-2H-PYRI- MIDIN-1-YL)-[1,3]DI- OXOLAN-2-YL- METHYL ESTER] | 4,500
18 | COC(=O)CCCC(=O)Nc1ccn([C@@H]2CO[C@H](CO)O2)c(=O)n1 [Compound 81, 4-[1-(2-HYDROXYMETHYL-[1,3]DI- OXOLAN-4-YL)-2-OX- O-1,2-DIHYDRO-PYRI- MIDIN-4-YL- CARBAMOYL]-BUTYRIC ACID METHYL ESTER] | 83
19 | Nc1ccn([C@@H]2CO[C@H](COC(=O)CCCCCNCc3ccccc3)O2)c(=O)n1 [Compound 84, 6-Benzylamino-hexanoic acid 4-(4-amino-2-oxo-2H-pyri-midin-1-yl)-[1,3]di-oxolan-2-ylmethyl ester] | 5,000
20 | Nc1ccn([C@@H]2CO[C@H](CO[C@@H]3O[C@H](CO)[C@@H](O)[C@H]3O)O2)c(=O)n1.O=C(O)C(F)(F)F [Compound 85, 4-AMINO-1-[2-(3,4-DI- HYDROXY-5-HYDROXY- METHYL-TETRA- HYDROFURAN-2-YLOXY- METHYL)-[1,3]DI- OXOLAN-4-YL]-1HPYIMI- DIN-2-ONE, TRIFLUOROACETIC ACID SALT] | 38
21 | O=C(O)C(F)(F)F.O=c1nc(NC/C=C/c2ccccc2)ccn1[C@@H]1CO[C@H](CO)O1 [Compound 89, 1-(2-HYDROXYMETHYL-[1,3]DI- OXOLAN-4-YL)-4-(3-CIN- NAMYL)-1H-PYRI- MIDIN-2-ONE TRIFLUORO-ACETATE SALT] | 40
22 | Nc1ccn([C@@H]2CO[C@H](COC/C=C/c3ccccc3)O2)c(=O)n1.O=C(O)C(F)(F)F [Compound 90, 4-AMINO-1-[2-(3-CIN- NAMYLOXYMETHYL)-[1,3]DI- OXOLAN-4-YL]-1H-PYRI- MIDIN-2-ONE TRIFLUOROACETATE SALT] | 1.5
23 | CC(OC[C@H]1OC[C@@H](n2ccc(N)nc2=O)O1)OC1CCCCC1 (some centres unmarked) [Compound 92, 4-AMINO-1-[2-(1-CYCLO- HEXYLOXY-ETH- OXYMETHYL)-[1,3]DI- OXOLAN-4-YL]-1H-PYRI- MIDIN-2-ONE] | 77
24 | CCCCC(CC)C(=O)Nc1ccn([C@@H]2CO[C@H](CO)O2)c(=O)n1 (some centres unmarked) [Compound 99, 2-ETHYL-HEXANOIC ACID [1-(2-HYDROXYMETHYL-[1,3]DI- OXOLAN-4-YL)-2-OX- O-1,2-DIHYDRO-PYRI- MIDIN-4-YL]-AMIDE] | >20
25 | O=C(Nc1ccn([C@@H]2CO[C@H](COC(=O)C34CC5CC(CC(C5)C3)C4)O2)c(=O)n1)OCc1ccccc1 [Compound 101, ADAMANTANE-1-CARBOXYLIC ACID 4-(4-BENZYL- OXYCARBONYLAMINO-2-OX- O-2H-PYRIMIDIN-1-YL)-[1,3]DI- OXOLAN-2-YLMETHYL ESTER] | 44
26 | O=C(Nc1ccn([C@@H]2CO[C@H](COC(=O)C34CC5CC(CC(C5)C3)C4)O2)c(=O)n1)C12CC3CC(CC(C3)C1)C2 [Compound 102, ADAMANTANE-1-CARBOXYLIC ACID 4-{4-[(ADAMANTANE-1-CAR- BONYL)-AMINO]-2-OX- O-2H-PYRIMIDIN-1-YL}-[1,3]DI- OXOLAN-2-YLMETHYL ESTER] | 27
27 | O=C(Nc1ccn([C@@H]2CO[C@H](COC(=O)Oc3ccc(Cl)cc3)O2)c(=O)n1)Oc1ccc(Cl)cc1 [Compound 103, CARBONIC ACID 4-[4-(4-CHLORO-PHENOXY- CARBONYLAMINO)-2-OX- O-2H-PYRIMIDIN-1-YL]-[1,3]DI- OXOLAN-2-YLMETHYL ESTER 4-CHLORO-PHENYL ESTER] | 4,545
28 | O=C(Nc1ccn([C@@H]2CO[C@H](CO)O2)c(=O)n1)Oc1ccc(Cl)cc1.O=C(O)C(F)(F)F [Compound 104, [1-(2-HYDROXYMETHYL-[1,3]DI- OXOLAN-4-YL)-2-OX- O-1,2-DIHYDRO-PYRI- MIDIN-4-YL]-CARBAMIC ACID 4-CHLORO-PHENYL ESTER TRIFLUOROACETATE SALT] | >476
29 | Nc1ccn([C@@H]2CO[C@H](COC(=O)Oc3ccc(Cl)cc3)O2)c(=O)n1.O=C(O)C(F)(F)F [Compound 105, CARBONIC ACID 4-(4-A- MINO-2-OXO-2H-PYRI- MIDIN-1-YL)-[1,3]DI- OXOLAN-2-YLMETHYL ESTER 4-CHLORO-PHENYL ESTER TRIFLUOROACETATE SALT] | 2 393
30 | O=C(NCc1ccccc1)Nc1ccn([C@@H]2CO[C@H](CO)O2)c(=O)n1 [Compound 108, 1-BENZYL-3-[1-(2-HYDROXY- METHYL-[1,3]DI- OXOLAN-4-YL)-2-OX- O-1,2-DIHYDRO-PYRI- MIDIN-4-YL]-UREA] | >29
31 | O=C(NCc1ccccc1)Nc1ccn([C@@H]2CO[C@H](COC(=O)NCc3ccccc3)O2)c(=O)n1 [Compound 109, BENZYL-CARBAMIC ACID 4-[4-(3-BEN- ZYL-UREIDO)-2-OX- O-2#H!-PYRIMIDIN-1-YL]-[1,3]DI- OXOLAN-2-YLMETHYL ESTER] | >100

Same assay, conditions: ratio of IC50 CEM/dCK- to IC50 CCRF-CEM, 24 h exposure; bis trifluoroacetate salt

Row | Compound | Factor (Resistance Factor = Ratio of dCK- on Wild-type CCRF-CEM)
32 | Nc1ccn([C@@H]2CO[C@H](COC(=O)CCCCCNCc3ccccc3)O2)c(=O)n1 [Compound 83, 6-Benzylamino-hexanoic acid 4-(4-amino-2-oxo-2H-pyri-midin-1-yl)-[1,3]di-oxolan-2-yl-methyl ester bis trifluoroacetate salt] | 4,545
